This note sets out measurements from patent publication US20040197335A1, “Non-myeloablative tolerogenic treatment with tyrphostins” (priority 2003, published 2004).

Experiment [1] concerns donor A anti-donor B-primed human PBMC vs donor B PBMC. As to the kind of experiment: Secondary MLR of alloantigen-primed PBMC against priming donor B. The format is cell-based. Particulars: then removed, priming without tyrphostin = 100%. The method, then:
(§1) PBMC from donor A (10×10^6) were stimulated with equal number of irradiated (6000 cGy) donor B PBMC, with and without tyrphostins, in a total volume of 20 ml culture medium supplemented with 10% heat inactivated human AB^+ serum (mixed lymphocyte culture, MLC). Cultures were placed vertically in 25 cm tissue culture flasks in a 5% CO2, humidified incubator at 37° C. After 10 days, cells were washed twice to remove the tyrphostin, and tested for their ability to respond in the MLR and the primary mitogenic response assay described hereinabove.
(§2) The alloreactivity of donor A anti-donor B-primed cells (5×10^4) was tested in a 6-day one-way primary MLR assay against third party unrelated donor C PBMC (10^5), or against donor A cells (background control). Cultures were placed in round-bottom microwell plates. On day 5, cultures were pulsed with 2 μCi [^3H] TdR/well for 16-18 hours and then harvested. […] After 48 hours at 37° C. in a 5% CO2 humidified incubator, cultures were pulsed with 2 μCi [^3H] TdR for another 16-18 hours and then harvested.
(§3) Harvesting and radioactivity determination: Harvesting was carried out by a multiple-sample cell harvester and radioactivity, expressed in counts per minutes (cpm), was determined in a liquid scintillation β-counter.
(§4) […] After 10 days the tyrphostin was removed and the primed cells were tested for their ability to respond in a secondary MLR assay against the priming (donor B) alloantigens, in a primary MLR assay against third party unrelated alloantigens (donor C), and to non-specific stimulation in a mitogenic assay. […] Percentage of response was calculated according to the formula described above.

Experiment [2] relates to donor A anti-donor B-primed human PBMC stimulated with PHA. Description: Mitogenic response (PHA) of alloantigen-primed PBMC. The format is cell-based. The following applies: then removed, priming without tyrphostin = 100%. The protocol: as §1
Cultures were incubated for 48 hours in a total volume of 0.2 ml culture medium supplemented with 10% heat-inactivated human AB^+ serum at 37° C. in a 5% CO2 humidified incubator, pulsed for 16-18 hours with 1 μCi [^3H]TdR/well, and then harvested.
as §3, §4

Experiment [3] deals with Mice with donor skin graft. As to the kind of experiment: Skin grafting after tolerogenic treatment (TLI, donor bone marrow cells, tyrphostin, cyclophosphamide). Details: Survivors after 50 days / Survivors after 50 days (%) / Survivors after 100 days / Survivors after 100 days (%): dose or concentration left out as unconfirmed. The format is in vivo.
The subject of experiment [4] is donor A anti-donor B-primed human PBMC vs third party unrelated donor C PBMC. Description: Primary MLR of alloantigen-primed PBMC against third party unrelated donor C. The format is cell-based. The following applies: then removed, priming without tyrphostin = 100%. The method, then:
as §1, §2, §3, §4

The subject of experiment [5] is Human PBMC incubated with MHC-mismatched PBMC. As to the kind of experiment: One-way mixed lymphocyte reaction (primary MLR), [3H]TdR uptake. It counts as cell-based. Particulars: for % response (alloreactive relative response, cpm with/without tyrphostin x100): FIG. 2, response without tyrphostin = 100%; for IC50: Table 5, some values marked (mean), read-out: IC 50% (inhibition of Primary MLR); for cpm: no tyrphostin 10,734 cpm. The protocol:
Cell sources: Human peripheral blood mononuclear cells (PBMC) were obtained from healthy human donors after separation on Ficoll-Paque density gradient essentially as described in Boyum, A. Scand. J Lab. Invest. […] Reagents:
One-way mixed lymphocyte reaction (MLR assay): Responding cells derived from donor A (5×10^4) were cultured in round-bottom microwell plates with an equal number (5×10^4) of irradiated (6000 cGy) donor B PBMC with and without tyrphostins. […] During the last 18 hours of incubation, cultures were pulsed with 2 μCi of [^3H] TdR.
as §3
Human PBMC were incubated either with autologous or with MHC-mismatched PBMC in a one-way MLR assay, with and without various concentrations of tyrphostins, as is described hereinabove.
In this case, the alloreactive response without the tyrphostins was considered as 100% response. Percentage of response was calculated according to the following formula: b/a×100; where a=cpm in cultures without tyrphostin, b=cpm in cultures with tyrphostin.

In experiment [6] the test system is Human PBMC stimulated with phytohemagglutinin (PHA). Description: Primary mitogenic response assay (PHA), [3H]TdR uptake. It counts as cell-based. The following applies: Table 6, tyrphostin 20 μM; for inhibition at 20 µM: Homo sapiens, PBMC, 96 h, mitogenic response; for cpm ± SD: PHA without tyrphostin 14,959±644, medium 155±37. The method, then:
Mitogens: Phytohemagglutinin (PHA) and concanavalin A (Con-A) were dissolved in saline and diluted to their final concentration in culture medium. Anti-CD3 (OK3 stock solution 1 μg/ml) was diluted to 0.2 μg/ml final concentration in culture medium.
Responding PBMC cells (10^5) derived from donor A were cultured in flat-bottom microwell plates with and without tyrphostins, and with phytohemagglutinin (PHA) 1 μg/ml, or concanavalin A 18 μg/ml. […] During the last 18 hours of incubation, cultures were pulsed with 1 μCi of [^3H] TdR.
as §3

The mark [7] stands for this setting: primed 10 days with tyrphostin 25 μM.
Setting [8] is: primed 10 days with tyrphostin 50 μM.
The mark [9] stands for this setting: Homo sapiens, PBMC, 144 h, Table 2, primary MLR, tyrphostin 50 μM.
Setting [10] is: Table 2, primary MLR, tyrphostin 50 μM.
The mark [11] stands for this setting: primed 10 days with tyrphostin 10 μM.
The mark [12] stands for this setting: primed 10 days with tyrphostin 20 μM.
[13] abbreviates: primed 10 days with tyrphostin 30 μM.

Structures are written as SMILES.

By inhibition is commonly meant the share of the control response that was lost under treatment. For `N#CC(=Cc1ccc(O)c(O)c1)C(=O)NCc1ccccc1` [Tyr 1, N-benzyl-2-cyano-3-(3,4-dihydroxyphenyl)-acrylamide], the results for the “% Response to primary stimulator” value in experiment [1] (setting [7]) and in experiment [1] (setting [8]) were 22 ± 14% and 19 ± 10%, respectively. Besides, the results for the “% Response to PHA” value in experiment [2] (setting [7]) and in experiment [2] (setting [8]) were 290 ± 111^ % and 176 ± 50%, respectively. The “Survivors after 50 days (%)” value in experiment [3] (mice, s.c.) is “(20%)”. Moreover, the “Survivors after 100 days (%)” value in experiment [3] (mice, s.c.) is reported as “(20%)”. Also, the “Survivors after 50 days” value in experiment [3] (mice, s.c., survivors/total) is recorded as 1/5. The “Survivors after 100 days” value in experiment [3] (mice, s.c., survivors/total) is 1/5. Also, the results for the “% Response to unrelated stimulator” value in experiment [4] (setting [7]) and in experiment [4] (setting [8]) were 99 ± 29^ % and 175 ± 77%, respectively. Besides, the “% response (alloreactive relative response, cpm with/without tyrphostin x100)” value in experiment [5] (primary MLR, tyrphostin 10 μM) amounted to 40%; in experiment [5] (primary MLR, tyrphostin 50 μM), 4%. The same compound returned an inhibition at 25 µM in experiment [5] (Homo sapiens, PBMC, 144 h, Table 2, primary MLR, tyrphostin 25 μM) of 77%. The inhibition at 50 µM in experiment [5] (setting [9]) amounted to 89%. Besides, the IC50 in experiment [5] (Homo sapiens, PBMC) is 45 µM. For the same compound, the cpm is listed as 2,420 cpm in experiment [5] (Table 2, primary MLR, tyrphostin 25 μM) and 1,132 cpm in experiment [5] (setting [10]). The compound further displayed an inhibition at 20 µM in experiment [6] of 60%. Besides, the “cpm ± SD” value in experiment [6] is 6,023 ± 876 cpm.
In the case of `N#CC(=Cc1cc(O)c(O)c(CSCCc2ccccc2)c1)C(=O)NCCCCc1ccccc1` [Tyr 6, 2-cyano-3-(3,4-dihydroxy-5-phenethylsulfanylmethyl-phenyl)-N-(4-phenylbutyl)-acrylamide], the results for the “% Response to primary stimulator” value in experiment [1] (setting [11]), in experiment [1] (setting [12]) and in experiment [1] (setting [13]) were 32%, 32 ± 0% and 46%, respectively. Further, the “% Response to PHA” value in experiment [2] (setting [11]) is on record as 152%; in experiment [2] (setting [12]) it was 62 ± 42^ %; in experiment [2] (setting [13]) it was 20%. Further, the “% Response to unrelated stimulator” value in experiment [4] (setting [11]) was found to be 250%; in experiment [4] (setting [12]), 220 ± 93%; in experiment [4] (setting [13]), 185%. This compound came in with an inhibition at 10 µM in experiment [5] (Homo sapiens, PBMC, 144 h, Table 2, primary MLR, tyrphostin 10 μM) of 59%. Further, the inhibition at 50 µM in experiment [5] (setting [9]) amounted to 99%. For the same compound, the IC50 in experiment [5] (Homo sapiens, PBMC) was 23 µM. Also, the cpm in experiment [5] (Table 2, primary MLR, tyrphostin 10 μM) is given as 4,431 cpm; in experiment [5] (setting [10]) it was 168 cpm. In addition, the inhibition at 20 µM in experiment [6] was determined as 70%. Also, the “cpm ± SD” value in experiment [6] is 4,662 ± 104 cpm.
Take `O=P1(N(CCCl)CCCl)NCCCO1` (stereo not drawn) [cyclophosphamide, reference compound]: in experiment [3] (mouse, in vivo, 100 mg/kg), the “effectiveness of sub-optimal dose by itself” value is on record as “ineffective”.
